Test results published in patent US10072001B2, “Tank-binding kinase inhibitor compounds” (Gilead Sciences, Inc., priority 2014, dated 2018).

Tests used:
TBK1 = TBK1 (Homo sapiens (Human), UniProt Q9UHD2); assay: TR-FRET kinase assay, TBK1; conditions: read-out: TBK1-IC50; full length recombinant TBK1 2.5 nM, 2x Km ATP, 1 μM peptide, 240 min at 25° C.; geometric mean of minimum four determinations
Chain of TBK1 (Q9UHD2 whole entry): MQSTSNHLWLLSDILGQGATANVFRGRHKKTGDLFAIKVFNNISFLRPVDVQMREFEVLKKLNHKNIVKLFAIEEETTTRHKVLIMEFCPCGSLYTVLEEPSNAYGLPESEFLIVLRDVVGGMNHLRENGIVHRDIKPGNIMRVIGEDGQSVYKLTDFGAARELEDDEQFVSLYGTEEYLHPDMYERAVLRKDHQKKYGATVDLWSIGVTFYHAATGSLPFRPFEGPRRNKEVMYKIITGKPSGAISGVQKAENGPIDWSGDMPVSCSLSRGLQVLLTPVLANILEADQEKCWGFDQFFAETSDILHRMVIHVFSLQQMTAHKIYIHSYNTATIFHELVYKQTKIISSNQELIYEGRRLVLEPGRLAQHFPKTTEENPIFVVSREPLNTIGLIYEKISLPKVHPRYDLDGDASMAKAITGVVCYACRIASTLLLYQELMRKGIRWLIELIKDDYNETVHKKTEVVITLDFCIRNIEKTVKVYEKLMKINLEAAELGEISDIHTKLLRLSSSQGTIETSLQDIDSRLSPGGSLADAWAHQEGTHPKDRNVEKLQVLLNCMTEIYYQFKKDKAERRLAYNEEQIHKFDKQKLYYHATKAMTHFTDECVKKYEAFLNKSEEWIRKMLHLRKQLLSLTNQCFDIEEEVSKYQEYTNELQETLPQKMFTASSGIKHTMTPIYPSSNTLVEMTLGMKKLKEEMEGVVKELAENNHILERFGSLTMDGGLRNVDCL

IKKε = IKKε (Homo sapiens (Human), UniProt Q14164); assay: TR-FRET kinase assay, IKKε; type: biochemical; conditions: full length recombinant IKKε 0.3 nM, 2x Km ATP, 1 μM peptide, 240 min at 25° C.; geometric mean of minimum four determinations
Chain of IKKε (Q14164 whole entry): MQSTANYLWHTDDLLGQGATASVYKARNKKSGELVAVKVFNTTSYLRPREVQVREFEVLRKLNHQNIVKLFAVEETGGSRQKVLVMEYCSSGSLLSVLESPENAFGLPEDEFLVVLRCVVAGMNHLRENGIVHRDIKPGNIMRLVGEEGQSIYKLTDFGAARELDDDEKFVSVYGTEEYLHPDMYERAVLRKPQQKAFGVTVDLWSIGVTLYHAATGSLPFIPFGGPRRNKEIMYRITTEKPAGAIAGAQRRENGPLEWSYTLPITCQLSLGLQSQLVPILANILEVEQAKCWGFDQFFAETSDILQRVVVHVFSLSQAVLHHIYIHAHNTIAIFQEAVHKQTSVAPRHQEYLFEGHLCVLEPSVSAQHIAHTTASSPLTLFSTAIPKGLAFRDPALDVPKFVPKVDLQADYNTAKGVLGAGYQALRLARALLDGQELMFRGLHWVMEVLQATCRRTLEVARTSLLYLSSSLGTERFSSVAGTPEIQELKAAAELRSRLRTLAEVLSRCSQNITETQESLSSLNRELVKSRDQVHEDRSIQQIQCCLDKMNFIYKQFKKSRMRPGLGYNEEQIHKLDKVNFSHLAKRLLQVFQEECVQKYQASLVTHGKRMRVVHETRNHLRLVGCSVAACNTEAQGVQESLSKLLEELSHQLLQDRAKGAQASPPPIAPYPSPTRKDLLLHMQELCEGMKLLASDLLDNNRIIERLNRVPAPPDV
Text: Biological Assay for TBK1 and IKKs:

Row | Structure (SMILES) | IC50 (TBK1) [nM] | IC50 (IKKε) [nM]
1 | CC(C)(C)OC(=O)N1CC[C@@H](Oc2ccc(-c3ccnc4[nH]c(-c5ccc(N6CCOCC6)cc5)nc34)cc2C#N)C1 [Example 302, (R)-tert-butyl 3-(2-cyano-4-(2-(4-morpholinophenyl)-3H-imidazo[4,5-b]pyridin-7-yl)phenoxy)pyrrolidine-1-carboxylate] | > 1000 | > 1000
2 | N#Cc1cc(-c2ccnc3[nH]c(-c4ccc(N5CCOCC5)cc4)cc23)ccc1O[C@H]1CCNC1 [Example 22, (S)-5-(2-(4-morpholinophenyl)-1H-pyrrolo[2,3-b]pyridin-4-yl)-2-(pyrrolidin-3-yloxy)benzonitrile] | 39.6 | 132
3 | CN1CCN(c2ccc(-c3cc4c(-c5ccc(OC6CCOCC6)c(C#N)c5)ncnc4[nH]3)cc2)CC1 [Example 219, 5-(6-(4-(4-methylpiperazin-1-yl)phenyl)-7H-pyrrolo[2,3-d]pyrimidin-4-yl)-2-((tetrahydro-2H-pyran-4-yl)oxy)benzonitrile] | 2.5 | 3.37
4 | N#CCC(=O)N1CC[C@@H](Oc2ccc(-c3ncnc4[nH]c(-c5ccc(N6CCOCC6)cc5)cc34)cc2C#N)C1 [Example 107, (R)-2-((1-(2-cyanoacetyl)pyrrolidin-3-yl)oxy)-5-(6-(4-morpholinophenyl)-7H-pyrrolo[2,3-d]pyrimidin-4-yl)benzonitrile] | 2.26 | 11.7
5 | N#Cc1cc(-c2ccnc3[nH]c(-c4ccc5c(c4)OCC(=O)N5)cc23)ccc1OC1CCOCC1 [Example 75, 5-(2-(3-oxo-3,4-dihydro-2H-benzo[b][1,4]oxazin-7-yl)-1H-pyrrolo[2,3-b]pyridin-4-yl)-2-((tetrahydro-2H-pyran-4-yl)oxy)benzonitrile] | 6.28 | 10.5
6 | N#Cc1cc(-c2ccnc3[nH]c(-c4ccc(N5CCOCC5)cc4)cc23)ccc1OC1COC1 [Example 235, 5-(2-(4-morpholinophenyl)-1H-pyrrolo[2,3-b]pyridin-4-yl)-2-(oxetan-3-yloxy)benzonitrile] | 9.27 | 103
7 | N#Cc1cc(-c2ncnc3[nH]c(-c4ccc(C(=O)N5CCOCC5)cc4)cc23)ccc1OC1CCOCC1 [Example 186, 5-(6-(4-(morpholine-4-carbonyl)phenyl)-7H-pyrrolo[2,3-d]pyrimidin-4-yl)-2-((tetrahydro-2H-pyran-4-yl)oxy)benzonitrile] | 1.62 | 4.96
8 | N#Cc1cc(-c2ncnc3[nH]c(-c4cccc(CN5CCOCC5)c4)cc23)ccc1OC1CCN(C(=O)CO)CC1 [Example 184, 2-((1-(2-hydroxyacetyl)piperidin-4-yl)oxy)-5-(6-(3-(morpholinomethyl)phenyl)-7H-pyrrolo[2,3-d]pyrimidin-4-yl)benzonitrile] | 4.99 | 3.43
9 | N#Cc1cc(-c2ccnc3[nH]c(-c4ccc(N5CCOCC5)cc4)cc23)ccc1NC(=O)C1CC1 [Example 32, N-(2-cyano-4-(2-(4-morpholinophenyl)-1H-pyrrolo[2,3-b]pyridin-4-yl)phenyl)cyclopropanecarboxamide] | 9.34 | > 1000
10 | N#Cc1cc(-c2ccnc3[nH]c(-c4ccc(N5CCOCC5)cc4)cc23)ccc1OC1CCN(C(=O)CN)CC1 [Example 152, 2-((1-(2-aminoacetyl)piperidin-4-yl)oxy)-5-(2-(4-morpholinophenyl)-1H-pyrrolo[2,3-b]pyridin-4-yl)benzonitrile] | 5.96 | 18.4
11 | CC(C)Oc1ccc(-c2ccnc3[nH]c(-c4ccc(N5CCOCC5)cc4)cc23)cc1C#N [Example 71, 2-isopropoxy-5-(2-(4-morpholinophenyl)-1H-pyrrolo[2,3-b]pyridin-4-yl)benzonitrile] | 59.3 | 358
12 | N#Cc1cc(-c2ncnc3[nH]c(-c4ccc(C(=O)N5CCOCC5)cc4)cc23)ccc1OC1CCN(C(=O)CO)CC1 [Example 160, 2-((1-(2-Hydroxyacetyl)piperidin-4-yl)oxy)-5-(6-(4-(morpholine-4-carbonyl)phenyl)-7H-pyrrolo[2,3-d]pyrimidin-4-yl)benzonitrile] | 1.32 | 2.33
13 | N#Cc1cc(-c2ccnc3[nH]c(-c4cccc(CN5CCOCC5)c4)cc23)ccc1OC1CCOCC1 [Example 39, 5-(2-(3-(morpholinomethyl)phenyl)-1H-pyrrolo[2,3-b]pyridin-4-yl)-2-((tetrahydro-2H-pyran-4-yl)oxy)benzonitrile] | 10.1 | 10.7
14 | CC1CN(c2ccc(-c3nc4c(-c5ccc(OC6CCN(C(=O)CO)CC6)c(C#N)c5)ncnc4[nH]3)cc2)CCN1CCF (stereo not shown) [Example 256, 5-(8-(4-(4-(2-fluoroethyl)-3-methylpiperazin-1-yl)phenyl)-9H-purin-6-yl)-2-((1-(2-hydroxyacetyl)piperidin-4-yl)oxy)benzonitrile] | 2.4 | 1.79
15 | N#Cc1cc(-c2ncnc3[nH]c(-c4ccc(OC(F)(F)F)cc4)cc23)ccc1OC1CCN(C(=O)CO)CC1 [Example 128, 2-((1-(2-hydroxyacetyl)piperidin-4-yl)oxy)-5-(6-(4-(trifluoromethoxy)phenyl)-7H-pyrrolo[2,3-d]pyrimidin-4-yl)benzonitrile] | 4.21 | 13.6
16 | CS(=O)(=O)N1CCN(c2ccc(-c3cc4c(-c5ccc(OC6CCOCC6)c(C#N)c5)ccnc4[nH]3)cc2)CC1 [Example 55, 5-(2-(4-(4-(methylsulfonyl)piperazin-1-yl)phenyl)-1H-pyrrolo[2,3-b]pyridin-4-yl)-2-((tetrahydro-2H-pyran-4-yl)oxy)benzonitrile] | 2.84 | > 1000
17 | N#Cc1cc(-c2ncnc3[nH]c(-c4ccc(CC(=O)O)cc4)cc23)ccc1OC1CCOCC1 [Example 168, 2-(4-(4-(3-Cyano-4-((tetrahydro-2H-pyran-4-yl)oxy)phenyl)-7H-pyrrolo[2,3-d]pyrimidin-6-yl)phenyl)acetic acid] | 13.7 | 15.7
18 | N#Cc1cc(-c2ncnc3[nH]c(-c4ccc(N5CCOCC5)cc4)cc23)ccc1O[C@@H]1CCNC1 [Example 106, (R)-5-(6-(4-morpholinophenyl)-7H-pyrrolo[2,3-d]pyrimidin-4-yl)-2-(pyrrolidin-3-yloxy)benzonitrile] | 4.94 | 19
19 | C[C@@H](O)C(=O)N1CC[C@@H](Oc2ccc(-c3ncnc4[nH]c(-c5ccc(N6CCOCC6)cc5)nc34)cc2C#N)C1 [Example 209, 2-(((R)-1-((R)-2-hydroxypropanoyl)pyrrolidin-3-yl)oxy)-5-(8-(4-morpholinophenyl)-9H-purin-6-yl)benzonitrile] | 13.1 | 58.7
20 | N#Cc1cc(-c2ncnc3[nH]c(-c4ccc(N5CCN(C6COC6)CC5)cc4)nc23)ccc1OC1CCOCC1 [Example 232, 5-(8-(4-(4-(oxetan-3-yl)piperazin-1-yl)phenyl)-9H-purin-6-yl)-2-((tetrahydro-2H-pyran-4-yl)oxy)benzonitrile] | 4.49 | 15.5
21 | N#Cc1cc(-c2ncnc3[nH]c(-c4ccc(N5CCOCC5)cc4)nc23)ccc1O[C@@H]1CCNC1 [Example 207, (R)-5-(8-(4-morpholinophenyl)-9H-purin-6-yl)-2-(pyrrolidin-3-yloxy)benzonitrile] | 15.8 | 113
22 | N#Cc1cc(-c2ccnc3[nH]c(-c4ccc(N5CCOCC5)cc4)nc23)ccc1O[C@@H]1CCNC1 [Example 195, (R)-5-(2-(4-morpholinophenyl)-3H-imidazo[4,5-b]pyridin-7-yl)-2-(pyrrolidin-3-yloxy)benzonitrile] | 17.7 | 62.3
23 | N#Cc1cc(-c2ccnc3[nH]c(-c4ccc(N5CCN(C6COC6)CC5)cc4)cc23)ccc1OC1CCOCC1 [Example 85, 5-(2-(4-(4-(oxetan-3-yl)piperazin-1-yl)phenyl)-1H-pyrrolo[2,3-b]pyridin-4-yl)-2-((tetrahydro-2H-pyran-4-yl)oxy)benzonitrile] | 1.31 | 3.5
24 | COc1cc(-c2cc3c(-c4ccc(OC5CCNCC5)c(C#N)c4)ncnc3[nH]2)ccc1N1CCOCC1 [Example 122, 5-(6-(3-methoxy-4-morpholinophenyl)-7H-pyrrolo[2,3-d]pyrimidin-4-yl)-2-(piperidin-4-yloxy)benzonitrile] | 21.2 | 115
25 | CC(C)(C)OC(=O)N1CC[C@@H](Oc2ccc(-c3ccnc4[nH]c(-c5ccc(N6CCOCC6)cc5)cc34)cc2C#N)C1 [Example 17, (R)-tert-butyl 3-(2-cyano-4-(2-(4-morpholinophenyl)-1H-pyrrolo[2,3-b]pyridin-4-yl)phenoxy)pyrrolidine-1-carboxylate] | 146 | 394
26 | C[C@H](O)C(=O)N1CCC(Oc2ccc(-c3ncnc4[nH]c(-c5ccc(N6CCOCC6)cc5)nc34)cc2C#N)CC1 [Example 234, (S)-2-((1-(2-hydroxypropanoyl)piperidin-4-yl)oxy)-5-(8-(4-morpholinophenyl)-9H-purin-6-yl)benzonitrile] | 2.34 | 8.64
27 | COc1ccc(-c2cc3c(-c4ccc(OC5CCNCC5)c(C#N)c4)ncnc3[nH]2)cc1 [Example 123, 5-(6-(4-methoxyphenyl)-7H-pyrrolo[2,3-d]pyrimidin-4-yl)-2-(piperidin-4-yloxy)benzonitrile] | 22.4 | 65.8
28 | Cn1cc(-c2cc3c(-c4ccc(OC5CCOCC5)c(C#N)c4)ncnc3[nH]2)cn1 [Example 104, 5-(6-(1-methyl-1H-pyrazol-4-yl)-7H-pyrrolo[2,3-d]pyrimidin-4-yl)-2-((tetrahydro-2H-pyran-4-yl)oxy)benzonitrile] | 3.81 | 8.18
29 | COC(=O)c1ccc(-c2cc3c(-c4ccc(OC5CCN(C(=O)CO)CC5)c(C#N)c4)ncnc3[nH]2)cc1 [Example 159, Methyl 4-(4-(3-cyano-4-((1-(2-hydroxyacetyl)piperidin-4-yl)oxy)phenyl)-7H-pyrrolo[2,3-d]pyrimidin-6-yl)benzoate] | 2.17 | 5.09
